Data reported in publication PMC5391474, “Investigation of the Role of Protein Kinase D in Human Rhinovirus Replication” (Journal of Virology, 2017).

Assays:
Test in all cases: biochemical
Parameters in all cases: in vitro kinase selectivity panel, protein and lipid kinases, single concentration, ATP at Km
Conditions in all cases: ATP at Km
EphB4(h) = EphB4(h) (Homo sapiens, UniProt P54760)
Summary of the method: (§1)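 Single-point screen against a protein and lipid kinase panel: inhibitor at 1 μM. ATP concentration for every kinase equivalent to its Km.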

MAPKAP-K2(h) = target: T1, MAPKAP-K2(h) (Homo sapiens, UniProt P49137)
T1 construct: gene MAPKAPK2
Summary of the method: as §1

DGKG = DGKG (Homo sapiens, UniProt P49619)
Summary of the method: as §1

PDK1(h) = target: T2, PDK1(h) (Homo sapiens, UniProt O15530)
T2 construct: gene PDPK1
Summary of the method: as §1

PAK2(h) = PAK2(h) (Homo sapiens, UniProt Q13177)
Summary of the method: as §1

Yes(h) = target: T3, Yes(h) (Homo sapiens, UniProt P07947)
T3 construct: gene YES1
Summary of the method: as §1

GSK3β(h) = target: T4, GSK3β(h) (Homo sapiens, UniProt P49841)
T4 construct: gene GSK3B
Summary of the method: as §1

CHK2(h) = target: T5, CHK2(h) (Homo sapiens, UniProt O96017)
T5 construct: gene CHEK2
Summary of the method: as §1

PIP4K2A = PIP4K2A (Homo sapiens, UniProt P48426)
Summary of the method: as §1

ZIPK(h) = target: T6, ZIPK(h) (Homo sapiens, UniProt O43293)
T6 construct: gene DAPK3
Summary of the method: as §1

PKCε(h) = target: T7, PKCε(h) (Homo sapiens, UniProt Q02156)
T7 construct: gene PRKCE
Summary of the method: as §1

PKCγ(h) = target: T8, PKCγ(h) (Homo sapiens, UniProt P05129)
T8 construct: gene PRKCG
Summary of the method: as §1

cKit(D816H)(h) = target: T9, cKit(D816H)(h) (Homo sapiens, UniProt P10721, D816H)
T9 construct: gene KIT
Summary of the method: as §1

PKCβII(h) = target: T10, PKCβII(h) (Homo sapiens, UniProt P05771)
T10 construct: gene PRKCB; isoform beta II
Summary of the method: as §1

Flt1(h) = Flt1(h) (Homo sapiens, UniProt P17948)
Summary of the method: as §1

SPHK1 = SPHK1 (Homo sapiens, UniProt Q9NYA1)
Summary of the method: as §1

CK1γ3(h) = target: T11, CK1γ3(h) (Homo sapiens, UniProt Q9Y6M4)
T11 construct: gene CSNK1G3
Summary of the method: as §1

T2 sequence (O15530 whole entry): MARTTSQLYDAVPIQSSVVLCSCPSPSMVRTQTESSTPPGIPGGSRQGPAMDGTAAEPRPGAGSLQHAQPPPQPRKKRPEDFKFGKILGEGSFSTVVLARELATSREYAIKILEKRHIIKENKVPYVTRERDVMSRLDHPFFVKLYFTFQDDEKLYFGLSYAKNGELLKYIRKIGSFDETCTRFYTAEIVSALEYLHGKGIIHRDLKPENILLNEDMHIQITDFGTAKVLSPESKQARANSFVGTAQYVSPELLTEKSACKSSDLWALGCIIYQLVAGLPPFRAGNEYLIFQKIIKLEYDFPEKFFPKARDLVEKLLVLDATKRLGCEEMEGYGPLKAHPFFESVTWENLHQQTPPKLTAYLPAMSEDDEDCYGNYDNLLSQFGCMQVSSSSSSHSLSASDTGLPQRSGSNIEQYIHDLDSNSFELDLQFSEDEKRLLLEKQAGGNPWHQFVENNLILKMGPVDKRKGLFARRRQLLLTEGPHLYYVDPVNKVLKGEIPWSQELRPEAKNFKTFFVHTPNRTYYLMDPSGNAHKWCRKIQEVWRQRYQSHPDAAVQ
T5 sequence (O96017 whole entry): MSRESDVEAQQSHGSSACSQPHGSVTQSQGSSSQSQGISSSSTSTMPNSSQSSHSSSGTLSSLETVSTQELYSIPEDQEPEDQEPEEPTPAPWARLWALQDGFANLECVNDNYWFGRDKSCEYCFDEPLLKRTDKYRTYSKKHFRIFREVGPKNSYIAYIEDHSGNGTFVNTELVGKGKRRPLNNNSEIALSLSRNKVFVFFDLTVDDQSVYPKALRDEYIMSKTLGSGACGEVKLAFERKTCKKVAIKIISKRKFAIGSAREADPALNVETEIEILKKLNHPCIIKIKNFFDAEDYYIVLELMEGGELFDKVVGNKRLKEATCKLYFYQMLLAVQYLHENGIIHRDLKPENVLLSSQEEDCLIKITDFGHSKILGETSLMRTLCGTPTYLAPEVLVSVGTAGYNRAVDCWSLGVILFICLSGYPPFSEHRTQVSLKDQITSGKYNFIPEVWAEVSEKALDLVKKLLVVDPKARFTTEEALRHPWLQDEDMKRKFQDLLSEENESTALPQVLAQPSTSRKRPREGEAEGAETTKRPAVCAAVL
T7 sequence (Q02156 whole entry): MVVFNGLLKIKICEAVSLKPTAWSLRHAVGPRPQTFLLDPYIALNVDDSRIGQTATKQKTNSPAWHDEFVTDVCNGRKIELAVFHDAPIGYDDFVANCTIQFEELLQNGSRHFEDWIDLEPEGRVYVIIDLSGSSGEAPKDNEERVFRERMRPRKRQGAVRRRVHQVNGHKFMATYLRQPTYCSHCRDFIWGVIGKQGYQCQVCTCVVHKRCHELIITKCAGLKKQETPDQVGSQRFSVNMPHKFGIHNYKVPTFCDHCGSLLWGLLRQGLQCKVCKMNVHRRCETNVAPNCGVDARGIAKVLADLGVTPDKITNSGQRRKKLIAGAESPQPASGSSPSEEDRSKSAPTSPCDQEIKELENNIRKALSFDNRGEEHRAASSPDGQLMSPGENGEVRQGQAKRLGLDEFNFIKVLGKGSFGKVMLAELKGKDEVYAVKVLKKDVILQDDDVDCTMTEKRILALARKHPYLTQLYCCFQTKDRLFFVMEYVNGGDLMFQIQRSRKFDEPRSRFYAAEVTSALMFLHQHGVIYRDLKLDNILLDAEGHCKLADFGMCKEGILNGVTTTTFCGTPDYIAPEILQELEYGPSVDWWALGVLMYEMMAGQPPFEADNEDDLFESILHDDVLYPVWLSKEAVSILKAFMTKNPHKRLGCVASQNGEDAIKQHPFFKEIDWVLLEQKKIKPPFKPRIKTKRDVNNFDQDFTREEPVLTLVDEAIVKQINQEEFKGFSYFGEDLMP
Sequence of PIP4K2A (P48426 whole entry): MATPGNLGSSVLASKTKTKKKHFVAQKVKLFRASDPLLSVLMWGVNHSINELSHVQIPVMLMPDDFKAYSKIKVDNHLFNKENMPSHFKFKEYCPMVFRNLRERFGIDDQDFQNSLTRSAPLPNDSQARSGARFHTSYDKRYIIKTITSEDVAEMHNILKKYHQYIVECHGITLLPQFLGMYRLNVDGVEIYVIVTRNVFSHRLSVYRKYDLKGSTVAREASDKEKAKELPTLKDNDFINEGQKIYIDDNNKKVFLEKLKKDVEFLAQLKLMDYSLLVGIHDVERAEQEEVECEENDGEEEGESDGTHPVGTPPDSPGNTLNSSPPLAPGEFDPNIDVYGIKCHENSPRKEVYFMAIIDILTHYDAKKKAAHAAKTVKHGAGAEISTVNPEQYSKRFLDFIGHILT
T1 sequence (P49137 whole entry): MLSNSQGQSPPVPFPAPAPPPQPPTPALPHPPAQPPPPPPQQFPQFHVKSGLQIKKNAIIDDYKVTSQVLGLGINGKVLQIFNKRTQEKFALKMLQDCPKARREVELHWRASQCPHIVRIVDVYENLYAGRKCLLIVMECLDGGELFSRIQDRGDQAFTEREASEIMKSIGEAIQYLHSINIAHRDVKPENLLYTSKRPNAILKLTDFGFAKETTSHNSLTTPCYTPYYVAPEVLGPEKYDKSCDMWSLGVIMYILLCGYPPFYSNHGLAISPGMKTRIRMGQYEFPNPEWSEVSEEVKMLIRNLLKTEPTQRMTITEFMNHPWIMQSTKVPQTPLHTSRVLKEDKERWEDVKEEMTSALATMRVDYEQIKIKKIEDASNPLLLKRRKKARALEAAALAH
T6 sequence (O43293 whole entry): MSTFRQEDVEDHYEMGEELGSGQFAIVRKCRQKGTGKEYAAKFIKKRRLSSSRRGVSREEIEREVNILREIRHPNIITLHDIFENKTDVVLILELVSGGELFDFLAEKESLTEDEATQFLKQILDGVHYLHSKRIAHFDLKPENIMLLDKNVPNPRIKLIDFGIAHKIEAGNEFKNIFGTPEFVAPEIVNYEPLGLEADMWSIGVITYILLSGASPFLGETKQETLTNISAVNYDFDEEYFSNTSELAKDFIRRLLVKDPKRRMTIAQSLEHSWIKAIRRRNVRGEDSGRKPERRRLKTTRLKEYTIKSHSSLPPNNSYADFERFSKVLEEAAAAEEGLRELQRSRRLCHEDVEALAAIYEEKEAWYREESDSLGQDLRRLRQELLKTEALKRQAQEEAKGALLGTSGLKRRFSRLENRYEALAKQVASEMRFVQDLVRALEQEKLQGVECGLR
T9 sequence (P10721 whole entry D816H): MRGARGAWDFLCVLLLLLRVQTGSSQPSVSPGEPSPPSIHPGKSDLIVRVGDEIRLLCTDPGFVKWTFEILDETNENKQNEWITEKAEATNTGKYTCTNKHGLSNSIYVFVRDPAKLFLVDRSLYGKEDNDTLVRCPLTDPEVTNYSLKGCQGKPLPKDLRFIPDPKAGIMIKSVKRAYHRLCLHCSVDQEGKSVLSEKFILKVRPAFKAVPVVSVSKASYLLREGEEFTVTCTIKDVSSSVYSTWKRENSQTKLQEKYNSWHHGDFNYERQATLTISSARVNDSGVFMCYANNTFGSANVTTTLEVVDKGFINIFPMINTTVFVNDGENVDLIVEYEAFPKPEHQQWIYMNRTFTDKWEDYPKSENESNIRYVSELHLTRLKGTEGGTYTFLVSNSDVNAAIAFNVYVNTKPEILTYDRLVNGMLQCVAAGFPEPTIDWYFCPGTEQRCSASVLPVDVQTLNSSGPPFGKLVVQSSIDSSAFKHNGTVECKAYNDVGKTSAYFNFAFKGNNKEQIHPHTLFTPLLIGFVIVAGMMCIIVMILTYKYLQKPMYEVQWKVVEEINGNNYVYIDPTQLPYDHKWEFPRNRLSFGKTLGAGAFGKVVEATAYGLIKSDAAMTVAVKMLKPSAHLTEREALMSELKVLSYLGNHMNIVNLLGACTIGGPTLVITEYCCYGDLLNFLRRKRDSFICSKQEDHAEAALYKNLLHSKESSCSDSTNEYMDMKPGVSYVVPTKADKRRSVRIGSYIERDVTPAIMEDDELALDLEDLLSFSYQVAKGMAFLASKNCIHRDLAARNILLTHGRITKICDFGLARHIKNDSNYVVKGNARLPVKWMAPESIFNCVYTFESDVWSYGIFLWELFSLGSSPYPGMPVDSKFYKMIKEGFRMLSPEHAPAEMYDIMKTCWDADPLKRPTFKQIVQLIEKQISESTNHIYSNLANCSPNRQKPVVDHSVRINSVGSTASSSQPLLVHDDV

CC[C@@H](N)CNc1ccnc(-c2cc(-c3cnn(C)c3)ccc2O)n1 [CRT0066101]
inhibition at 1 µM (EphB4(h)): 25% | inhibition at 1 µM (MAPKAP-K2(h)): -9% | inhibition at 1 µM (DGKG): -3% | inhibition at 1 µM (PDK1(h)): -17% | inhibition at 1 µM (PAK2(h)): 9% | inhibition at 1 µM (Yes(h)): 40% | inhibition at 1 µM (GSK3β(h)): 18% | inhibition at 1 µM (CHK2(h)): 26% | inhibition at 1 µM (PIP4K2A): -22% | inhibition at 1 µM (ZIPK(h)): 7% | inhibition at 1 µM (PKCε(h)): 12% | inhibition at 1 µM (PKCγ(h)): 7% | inhibition at 1 µM (cKit(D816H)(h)): 51% | inhibition at 1 µM (PKCβII(h)): -1% | inhibition at 1 µM (Flt1(h)): -6% | inhibition at 1 µM (SPHK1): 19% | inhibition at 1 µM (CK1γ3(h)): -3%
